Molecules are shown by their SMILES.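 Dose response: 5 concentrations. Exposure: 48 h. Format: 96-well plates. Endpoint: linear interpolation; highest concentration if not reached. TGI: total growth inhibition.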 Where only a bound is given, the exact number is not on record here.

Among the test systems are LOX IMVI melanoma; M14 melanoma; SK-MEL-2 melanoma; NCI-H226 lung; IGROV1 ovarian; NCI-H23 lung; SNB-75 CNS; HCC-2998 colon; RPMI-8226 leukemia; MCF7 breast.
Common to all, as to experiment: NCI anticancer screen, dose series, 48 h

Take `CC(C)=CC1C(C(=O)OCc2cc3c(cc2Cl)OCO3)C1(C)C` (configuration not stated): the TGI in the assay on LOX IMVI melanoma is 33.5 µM; in the assay with M14 melanoma it was more than 100 µM; with SK-MEL-2 melanoma it was 23.1 µM; in the assay on NCI-H226 lung, more than 100 µM; in the assay with IGROV1 ovarian, 87.5 µM; in the assay with NCI-H23 lung it was more than 100 µM. For the same molecule, the TGI is more than 100 µM with SNB-75 CNS and 58 µM in the assay with HCC-2998 colon.
Regarding `Cn1c2c(c3c(=O)[nH]ncc31)Cc1ccccc1-2`, the TGI in the assay on LOX IMVI melanoma was 75.1 µM; in the assay with M14 melanoma, 38.9 µM; with SK-MEL-2 melanoma, 41.8 µM; with NCI-H226 lung, 61.9 µM; in the assay on IGROV1 ovarian it was 33.7 µM; in the assay with NCI-H23 lung, more than 100 µM. In addition, the TGI in the assay on SNB-75 CNS amounted to 34.9 µM; in the assay with RPMI-8226 leukemia it was 69 µM; with MCF7 breast, 56.5 µM.
For `CC(=O)CCC1(C(=O)OCC(C)C)CCCC1=O` (configuration not stated), the TGI in the assay on LOX IMVI melanoma, in the assay with M14 melanoma, in the assay with SK-MEL-2 melanoma, in the assay with NCI-H226 lung, in the assay with IGROV1 ovarian and in the assay with NCI-H23 lung was more than 100 µM each time. The same molecule registered a TGI with SNB-75 CNS of more than 100 µM.
`CC(=O)c1c(-c2ccc(Cl)cc2)c(C#N)c(=S)n(C2OC(CO)C(O)C(O)C2O)c1C` (configuration not stated): the TGI in the assay on LOX IMVI melanoma is more than 100 µM; in the assay on M14 melanoma, more than 100 µM; in the assay with SK-MEL-2 melanoma, 84.5 µM; in the assay with NCI-H226 lung it was more than 100 µM; in the assay with IGROV1 ovarian it was more than 100 µM; in the assay on NCI-H23 lung, more than 100 µM. Further, the TGI with SNB-75 CNS and with HCC-2998 colon was more than 100 µM each time.
`COCOC1CCCC[C@@]1(OCCOCCO[C@@]1(c2ccccc2)CCCC[C@H]1OCOC)c1ccccc1` (some centres not stated): the TGI in the assay on LOX IMVI melanoma, in the assay with M14 melanoma, with SK-MEL-2 melanoma, in the assay on NCI-H226 lung, in the assay on IGROV1 ovarian and in the assay with NCI-H23 lung was more than 100 µM in each case. The TGI is 84.3 µM in the assay with SNB-75 CNS, more than 100 µM with HCC-2998 colon and more than 100 µM with RPMI-8226 leukemia.
With `O=C(OCCN=c1c2ccccc2ccc2ccccc12)c1cc([N+](=O)[O-])cc([N+](=O)[O-])c1`, the TGI in the assay on LOX IMVI melanoma, in the assay with M14 melanoma, in the assay on SK-MEL-2 melanoma, with NCI-H226 lung, in the assay with IGROV1 ovarian and in the assay on NCI-H23 lung was more than 100 µM each time. The TGI in the assay with SNB-75 CNS, in the assay on RPMI-8226 leukemia and in the assay with MCF7 breast was more than 100 µM throughout.
For the molecule `COc1ccc(/C(C=O)=C(\Cl)c2ccc(OC)c(OC)c2)cc1`, the TGI with LOX IMVI melanoma, in the assay with M14 melanoma, in the assay on SK-MEL-2 melanoma, in the assay on NCI-H226 lung, in the assay with IGROV1 ovarian and with NCI-H23 lung was more than 100 µM in each case. The TGI was 60.7 µM in the assay with SNB-75 CNS, more than 100 µM in the assay on HCC-2998 colon and more than 100 µM with RPMI-8226 leukemia.
Regarding `NC1CCC2(O)c3ccccc3C2C1` (configuration not stated), the TGI in the assay on LOX IMVI melanoma, in the assay with M14 melanoma, in the assay with SK-MEL-2 melanoma, in the assay on NCI-H226 lung, in the assay with NCI-H23 lung and with SNB-75 CNS was more than 100 µM throughout. Besides, the TGI with RPMI-8226 leukemia is more than 100 µM.
As for `C=CCOC(C)(C)C1=CCC(C)CC1` (configuration not stated), the TGI in the assay with M14 melanoma, with IGROV1 ovarian, with NCI-H23 lung, with SNB-75 CNS, in the assay with HCC-2998 colon and in the assay on RPMI-8226 leukemia was more than 100 µM throughout. In the assay with MCF7 breast, the TGI was more than 100 µM.
Take `CCOC(=O)N1CCNCCN(C(=O)OCC)CCNCC1`: the TGI in the assay on LOX IMVI melanoma, with M14 melanoma, in the assay on SK-MEL-2 melanoma, with NCI-H226 lung, in the assay on IGROV1 ovarian and in the assay with NCI-H23 lung was more than 100 µM throughout. Besides, the TGI in the assay with HCC-2998 colon, in the assay with RPMI-8226 leukemia and in the assay on MCF7 breast was more than 100 µM each time.
With `O=C(O)C1CCC(=O)N1C(=O)COc1cc(Cl)c(Cl)cc1Cl` (configuration not stated), the TGI in the assay with LOX IMVI melanoma, in the assay with M14 melanoma, with NCI-H226 lung, in the assay with IGROV1 ovarian, in the assay on NCI-H23 lung and in the assay on SNB-75 CNS was more than 100 µM in each case.
Take `CCOC(=O)C1C(c2ccc(Br)cc2)N(Cc2ccccc2)C(c2ccc(Br)cc2)C(C(=O)OC)S1(=O)=O` (configuration not stated): the TGI with LOX IMVI melanoma, in the assay with M14 melanoma, in the assay with SK-MEL-2 melanoma, with NCI-H226 lung, in the assay with IGROV1 ovarian and in the assay with NCI-H23 lung was more than 100 µM in each case. For the same molecule, the TGI is 57.3 µM with SNB-75 CNS, more than 100 µM in the assay with HCC-2998 colon and more than 100 µM in the assay with RPMI-8226 leukemia.
Take `COC(=O)c1c(O)ccc2c1c1c(n2Cc2ccc(OC)cc2)C(=O)c2ccccc2C1`: the TGI in the assay with LOX IMVI melanoma, in the assay on M14 melanoma, in the assay with SK-MEL-2 melanoma, with NCI-H226 lung, in the assay with IGROV1 ovarian and in the assay with NCI-H23 lung was more than 100 µM throughout. Moreover, the TGI with SNB-75 CNS was more than 100 µM; in the assay with RPMI-8226 leukemia it was 31.5 µM; with MCF7 breast it was more than 100 µM.
Turning to `CC(C)(C)C(=O)c1c(O)c2ccccc2c2ccccc2c1=O`, the TGI in the assay with LOX IMVI melanoma, with M14 melanoma, with SK-MEL-2 melanoma, with NCI-H226 lung, with NCI-H23 lung and with SNB-75 CNS was more than 100 µM throughout. This molecule displayed a TGI in the assay with MCF7 breast of more than 100 µM.
For the molecule `Cc1ccc(S(=O)(=O)NC(=O)Nc2ccc(C(=O)O)cc2)cc1`, the TGI in the assay with LOX IMVI melanoma, with M14 melanoma, in the assay with SK-MEL-2 melanoma, with IGROV1 ovarian, with NCI-H23 lung and in the assay on SNB-75 CNS was more than 100 µM throughout. Besides, the TGI in the assay on RPMI-8226 leukemia and with MCF7 breast was more than 100 µM each time.
As for `COc1cc(C2c3cc4c(cc3[C@@H](Nc3ccc(F)cc3)C3COC[C@H]23)OCO4)cc(OC)c1O` (some centres not stated), the TGI with M14 melanoma was more than 25 µM; with IGROV1 ovarian it was more than 25 µM; with SNB-75 CNS, 17 µM; with HCC-2998 colon, more than 25 µM; with RPMI-8226 leukemia it was 13.1 µM; in the assay on MCF7 breast it was more than 25 µM.

(Values after PubChem BioAssay (NCI).)
